From US8629273B2, “Diazinylpyrazolyl compounds” (Bayer Intellectual Property GmbH, priority 2009, dated 2014)

Legend:
Lucilia cuprina larvae = assay: Lucilia cuprina test (LUCICU); format: in vivo; conditions: 100 ppm, treated horse meat, after 2 days
Experimental: Solvent: Dimethyl Sulphoxide To produce a suitable preparation of active compound, 10 mg of active compound are mixed with 0.5 ml of dimethyl sulphoxide, and the concentrate is diluted with water to the desired concentration. Containers containing horse meat treated with the active compound preparation of the desired concentration are populated with Lucilia cuprina larvae. After 2 days, the kill in % is determined. 100% means that all larvae have been killed; 0% means that none of the larvae have been killed.

adult Musca domestica = assay: Musca domestica test (MUSCDO); format: in vivo; conditions: treated sponge
Experimental: Solvent: Dimethyl sulphoxide To prepare a suitable preparation of active compound, 10 mg of active component are mixed with 0.5 ml of dimethyl sulphoxide, and the concentrate is diluted with water to the desired concentration. Vessels containing a sponge which had been treated with the active compound preparation of the desired concentration are populated with adult Musca domestica. After the desired period of time, the kill in % is determined. 100% means that all flies have been killed; 0% means that none of the flies have been killed.

[1] = test system: Boophilus microplus strain Parkhurst (SP-resistant); assay: Boophilus microplus test (DIP); format: in vivo; conditions: 100 ppm
Experimental: Test animals: adult fed females of the Boophilus microplus strain Parkhurst (SP-resistant)
Solvent: Dimethyl sulphoxide
10 mg of active compound are dissolved in 0.5 ml of dimethyl sulphoxide. To produce a suitable formulation, the active compound solution is diluted with water to the particular desired concentration. This active compound preparation is pipetted into tubes. 8-10 ticks are transferred into a further tube provided with holes. The tube is dipped into the active compound preparation, with all ticks being wetted completely. After the liquid has run off, the ticks are transferred to filter discs in plastic dishes and kept in a climatized room. After the desired period of time, the activity is checked for deposition of fertile eggs. Eggs whose fertility is not visible from the outside are kept in glass tubes in a climatized cupboard under the larvae have hatched. An activity of 100% means that no tick has laid fertile eggs.

Boophilus microplus = Boophilus microplus test (BOOPMI injection); format: in vivo; conditions: 20 μg/animal, injected into the abdomen, after 7 days
Experimental: Solvent: Dimethyl Sulphoxide To produce a suitable preparation of active compound, 10 mg of active compound are mixed with 0.5 ml of solvent, and the concentrate is diluted with water to the desired concentration. The active compound solution is injected into the abdomen (Boophilus microplus) and the animals are transferred into dishes and stored in a climatized room. The activity is monitored for deposition of fertile eggs. After 7 days, the activity in % is determined. 100% means that none of the ticks has laid fertile eggs.

[2] = logP by HPLC on reversed-phase columns (C 18), EU Guideline 79/831 Annex V.A8; format: physicochemical; conditions: pH 7.8, 0.001 molar aqueous ammonium bicarbonate and acetonitrile; for logP: ** LC-MS in the neutral range
[3] = test system: caterpillars of the army worm (Spodoptera frugiperda); assay: Spodoptera frugiperda test (SPODFR spray treatment); format: in vivo; conditions: 100 g/ha, after 7 days
Experimental: Solvents: 78.0 parts by weight of acetone • • 1.5 parts by weight of dimethyl formamide Emulsifier: 0.5 part by weight of alkylaryl polyglycol ether To produce a suitable preparation of active compound, 1 part by weight of active compound is mixed with the stated amounts of solvent and emulsifier, and the concentrate is diluted with emulsifier-containing water to the desired concentration. Discs of maize leaves (Zea mays) are sprayed with an active compound preparation of the desired concentration and, after drying, populated with caterpillars of the army worm (Spodoptera frugiperda). After 7 days, the activity in % is determined. 100% means that all caterpillars have been killed; 0% means that none of the caterpillars have been killed. The test was carried out and evaluated as described in Example B.5.

Ctenocephalides felis = Ctenocephalides felis oral (CTECFE); format: in vivo; conditions: 100 ppm in citrated cattle blood, after 2 days
Experimental: Solvent: 1 part by weight of dimethyl sulphoxide To produce a suitable preparation of active compound, 10 mg of active compound are mixed with 0.5 ml of dimethyl sulphoxide. One part of the concentrate is diluted with citrated cattle blood, and the desired concentration is prepared. 20 unfed adult fleas (Ctenocephalides felis) are placed into a chamber whose top and bottom ends are closed with gauze. A metal cylinder whose bottom end is closed with parafilm is placed onto the chamber. The cylinder contains the blood/active compound preparation, which can be taken up by the fleas through the parafilm membrane. After 2 days, the kill in % is determined. 100% means that all fleas have been killed; 0% means that none of the fleas have been killed.

[4] = test system: larvae of the mustard beetle (Phaedon cochleariae); assay: Phaedon test (PHAECO spray treatment); format: in vivo; conditions: 100 g/ha, after 7 days
Experimental: Solvents: 78.0 parts by weight of acetone • • 1.5 parts by weight of dimethyl formamide Emulsifier: 0.5 part by weight of alkylaryl polyglycol ether To produce a suitable preparation of active compound, 1 part by weight of active compound is mixed with the stated amounts of solvent and emulsifier, and the concentrate is diluted with emulsifier-containing water to the desired concentration. Discs of Chinese cabbage leaves (Brassica pekinensis) are sprayed with an active compound preparation of the desired concentration and, after drying, populated with larvae of the mustard beetle (Phaedon cochleariae). After 7 days, the activity in % is determined. 100% means that all beetle larvae have been killed; 0% means that none of the beetle larvae have been killed. The test was carried out and evaluated as described in Example B.4.

SMILES | kill (Lucilia cuprina larvae) | kill (adult Musca domestica; 100 ppm) | activity (no deposition of fertile eggs) [1] | activity (no deposition of fertile eggs) (Boophilus microplus) | logP [2] | activity (caterpillars killed) [3] | kill (Ctenocephalides felis) | activity (beetle larvae killed) [4] | kill (adult Musca domestica; 20 ppm) | chromatographic logP ([2]; reversed-phase HPLC column (C 18), pH 7.8, ** LC-MS in the neutral range)
COc1cc(C=Nc2c(-c3cc(Cl)cc(C(F)(F)F)c3)c(C(F)(F)C(F)F)nn2-c2nccnc2OC)cc(OC)c1OC [Example 2-17] | 100% | 100% | 100% | 100% | 5.12** | – | – | – | – | –
COc1cc(C=Nc2c(-c3cc(Cl)c4c(c3)OCO4)c(C(F)(F)C(F)F)nn2-c2ncccn2)cc(OC)c1OC [Example 1-30] | 100% | – | 100% | 100% | 3.72** | 100% | 100% | 100% | – | –
COc1cc(C=Nc2c(-c3cc(Cl)cc(C(F)(F)F)c3)c(C(F)(F)F)nn2-c2nccnc2OC)cc(OC)c1OC [Example 2-16] | 100% | 90% | 100% | 100% | 5.35** | – | – | – | – | –
CCOC=Nc1c(-c2cc(Cl)c3c(c2)OCO3)c(C(F)(F)F)nn1-c1ncccn1 [Example 1-33] | 100% | – | 100% | 100% | 3.49** | 100% | 100% | 100% | – | –
COc1nccnc1-n1nc(C(F)(F)C(F)F)c(-c2cc(Cl)cc(C(F)(F)F)c2)c1N=Cc1ccccc1 [Example 2-11] | 100% | 90% | 90% | 100% | 5.37** | – | 90% | – | – | –
COc1ccc(C=Nc2c(-c3cc(Cl)c4c(c3)OCO4)c(C(F)(F)F)nn2-c2ncccn2)cc1 [Example 1-26] | 100% | – | 100% | 100% | 3.97** | 100% | 100% | 100% | – | –
FC(F)C(F)(F)c1nn(-c2ncccn2)c(N=Cc2ccccc2)c1-c1cc(Cl)c2c(c1)OCO2 [Example 1-24] | 100% | 80% | 100% | 100% | 3.9** | 100% | 100% | 100% | – | –
FC(F)(F)c1nn(-c2ncccn2)c(N=Cc2ccc(Cl)cc2)c1-c1cc(Cl)c2c(c1)OCO2 [Example 1-25] | 100% | – | 100% | 100% | 4.51** | 100% | 100% | 100% | 100% | –
COc1nccnc1-n1nc(C(F)(F)F)c(-c2cc(Cl)c3c(c2)OCO3)c1N=Cc1ccccc1 [Example 2-6] | 100% | – | 100% | 100% | 4.58** | – | 100% | – | – | –
COc1nccnc1-n1nc(C(F)(F)F)c(-c2cc(Cl)cc(C(F)(F)F)c2)c1N=Cc1ccc(Cl)cc1 [Example 2-7] | 100% | 90% | 100% | 100% | 6.01** | – | 90% | – | – | –
COc1cc(C=Nc2c(-c3cc(Cl)c4c(c3)OCO4)c(C(F)(F)F)nn2-c2ncccn2)cc(OC)c1OC [Example 1-27] | 100% | 80% | 100% | 100% | 3.82** | – | 100% | 100% | – | –
COc1ccc(C=Nc2c(-c3cc(Cl)c4c(c3)OCO4)c(C(F)(F)C(F)F)nn2-c2ncccn2)cc1 [Example 1-23] | 100% | – | 100% | 100% | 3.85** | 100% | 100% | 100% | – | –
FC(F)C(F)(F)c1nn(-c2ncccn2)c(N=Cc2ccccc2)c1-c1cc(Cl)cc(C(F)(F)F)c1 [Example 1-19] | 100% | 100% | – | 100% | 4.86** | 100% | 100% | 100% | – | –
CC(C)O/C=N/c1c(-c2cc(Cl)cc(C(F)(F)F)c2)c(C(F)(F)F)nn1-c1ncccn1 [Example 1-13, isopropyl {4-[3-chloro-5-(trifluoromethyl)phenyl]-1-(pyrimidin-2-yl)-3-(trifluoromethyl)-1H-pyrazol-5-yl}imidoformate] | 100% | – | – | 100% | – | 100% | 95% | 100% | 100% | 4.88
COc1ccc(C=Nc2c(-c3cc(Cl)cc(C(F)(F)F)c3)c(C(F)(F)F)nn2-c2nccnc2OC)cc1 [Example 2-8] | 100% | – | 100% | 100% | 5.48** | – | 95% | – | – | –
COc1cc(C=Nc2c(-c3cc(Cl)cc(C(F)(F)F)c3)c(C(F)(F)F)nn2-c2ncccn2)cc(OC)c1OC [Example 1-28] | 100% | 100% | – | 100% | 4.85** | 83% | 95% | 100% | – | –
COc1nccnc1-n1nc(C(F)(F)F)c(-c2cc(Cl)c3c(c2)OCO3)c1N=Cc1ccc(Cl)cc1 [Example 2-14] | 100% | 90% | 100% | 100% | 5.1** | – | 100% | – | – | –
COc1nccnc1-n1nc(C(F)(F)C(F)F)c(-c2cc(Cl)c3c(c2)OCO3)c1N=Cc1ccccc1 [Example 2-13] | 100% | 80% | 100% | 100% | 4.48** | – | 100% | – | – | –
